{"source": "patent US20050148523A1", "about": "“Method of treating HIV infection in atazanavir-resistant patients using a combination of atazanavir and another protease inhibitor” (priority 2003, published 2005)", "key": {"[1]": {"test_system": "clinical isolates containing an I50V", "test": "PhenoSense phenotypic susceptibility of clinical isolates containing I50V", "type": "cell-based, HIV-1", "text": "(§1) Drug Susceptibility Assays. Clinical isolates were subjected to phenotypic (PhenoSense™) and genotypic (GeneSeq™) analysis by Virologic, Inc. as described elsewhere.\nBecause an I50V substitution is a signature mutation sometimes associated with APV resistance, the cross-resistance relationship between ATV and APV was further examined."}, "[2]": {"test_system": "clinical isolates containing a D30N substitution", "test": "PhenoSense phenotypic susceptibility of clinical isolates containing D30N", "type": "cell-based, HIV-1", "conditions": "75 D30N containing isolates, FIG. 3", "procedure": "as §1\nComparative Studies of I50L and D30N Containing Viruses. […] Comparative studies were performed on the 18 phenotyped viruses containing an I50L and 75 clinical isolates containing a D30N substitution without evidence of cross-resistance (FC≧2.5) to other PIs."}, "[3]": {"test_system": "HIV-1 in treatment naive patients", "test": "Clinical study AI424-007/041, virological outcomes and resistance", "type": "in vivo, human", "conditions": "study 007/041", "text": "(§2) Study Population. Viral samples (baseline and on-treatment, where available) were obtained from patients who experienced virologic failure while enrolled in studies AI424-007/041 [12] (ATV+d4T and ddI), AI424-008/044 [13, 14] (ATV+d4T and 3TC) and AI424-034 [9] (ATV or EFV in combination with ZDV and 3TC). […] In general, virologic failure specimens were selected for further resistance evaluation only if they contained >1,000 copies/mL HIV-1 RNA and there was no indication that the specimen came from a patient at a time of transient non-adherence to study drug(s). […] For non-responders, samples from week 16 (or 24) were tested. Drug adherence was determined from pill counts of returned study medications at each scheduled visit.\n(§3) ATV resistance was defined as ≧2-fold decrease in ATV susceptibility from baseline, a Fold Change (FC) of ≧2.5 (relative to the Nl4-3 reference strain), or evidence of an isoleucine (Ile) to leucine (Leu) change at amino acid residue 50 (I50L). Resistance levels for NFV and EFV were also defined as a FC reaching 2.5."}, "[4]": {"test_system": "HIV-1 in treatment naive patients", "test": "Clinical study AI424-008/044, virological outcomes and resistance", "type": "in vivo, human", "conditions": "study 008/044", "text": "as §2, §3"}, "[5]": {"test_system": "HIV-1 in treatment naive patients", "test": "Clinical study AI424-034, virological outcomes and resistance", "type": "in vivo, human", "conditions": "study 034", "text": "as §2, §3"}, "[6]": {"test_system": "clinical isolates exhibiting a wide array of PI resistance profiles", "conditions": "cited from earlier work"}}, "note": "Like-named read-outs stand apart in the source and are kept apart here.", "data": [{"compound": "COC(=O)N[C@H](C(=O)N[C@@H](Cc1ccccc1)[C@@H](O)CN(Cc1ccc(-c2ccccn2)cc1)NC(=O)[C@@H](NC(=O)OC)C(C)(C)C)C(C)(C)C", "note": "[ATV, atazanavir]", "values": [{"measurement": "number of the eight isolates with FC less than 1.0", "setting": "[1]; 8 I50V isolates resistant to APV", "result": "Seven"}, {"measurement": "Susceptibility, Fold Change in EC50 relative to reference strain", "setting": "[1]; Isolate with I50V 1", "result": 0.3, "unit": "Fold Change"}, {"measurement": "Susceptibility, Fold Change in EC50 relative to reference strain", "setting": "[1]; Isolate with I50V 2", "result": 0.4, "unit": "Fold Change"}, {"measurement": "Susceptibility, Fold Change in EC50 relative to reference strain", "setting": "[1]; Isolate with I50V 3", "result": 0.6, "unit": "Fold Change"}, {"measurement": "Susceptibility, Fold Change in EC50 relative to reference strain", "setting": "[1]; Isolate with I50V 4", "result": 1.2, "unit": "Fold Change"}, {"measurement": "Susceptibility, Fold Change in EC50 relative to reference strain", "setting": "[1]; Isolate with I50V 5", "result": 0.4, "unit": "Fold Change"}, {"measurement": "Susceptibility, Fold Change in EC50 relative to reference strain", "setting": "[1]; Isolate with I50V 6", "result": 0.8, "unit": "Fold Change"}, {"measurement": "Susceptibility, Fold Change in EC50 relative to reference strain", "setting": "[1]; Isolate with I50V 7", "result": 0.5, "unit": "Fold Change"}, {"measurement": "Susceptibility, Fold Change in EC50 relative to reference strain", "setting": "[1]; Isolate with I50V 8", "result": 0.5, "unit": "Fold Change"}, {"measurement": "number of the eight isolates with FC of 0.4 or less", "setting": "[1]; {}", "result": 3}, {"measurement": "median FC", "setting": "[2]", "result": "small median decreases in susceptibility"}, {"measurement": "Virologic Failures (%)", "setting": "[3]", "result": 21, "unit": "%"}, {"measurement": "Virologic Failures, number", "setting": "[3]", "result": 51}, {"measurement": "Virologic Failures (%)", "setting": "[4]", "result": 24, "unit": "%"}, {"measurement": "Virologic Failures, number", "setting": "[4]", "result": 88}, {"measurement": "Virologic Failures (%)", "setting": "[5]", "result": 17, "unit": "%"}, {"measurement": "Virologic Failures, number", "setting": "[5]", "result": 69}, {"measurement": "percentage of isolates remaining susceptible to ATV", "setting": "[6]; isolates resistant to 1 PI", "result": 88, "unit": "%"}, {"measurement": "percentage of isolates remaining susceptible to ATV", "setting": "[6]; isolates resistant to 2 PIs", "result": 81, "unit": "%"}, {"measurement": "percentage of isolates remaining susceptible to ATV", "setting": "[6]; isolates resistant to 3 PIs", "result": 34, "unit": "%"}, {"measurement": "percentage of isolates remaining susceptible to ATV", "setting": "[6]; isolates resistant to 4 PIs", "result": 16, "unit": "%"}, {"measurement": "percentage of isolates remaining susceptible to ATV", "setting": "[6]; isolates resistant to 5 PIs", "result": 5, "unit": "%"}]}]}
